Experimental data reported in US20250009691A1, “DIALYSIS FLUID COMPRISING KETONE BODIES FOR THE TREATMENT OF CANCER” (GAMBRO LUNDIA AB, priority 2021, published 2025).

Key:
Type in all cases: cell-based, human
[1] = tested on: renal carcinoma cell line RCC4; experiment: Example 2: BOHB and Acac added alone or in combination to Medium B-C (CellTiter-Glo); conditions: nutrient restricted Medium C
Method: (§1) Stock solutions of DL-β-Hydroxybutyric acid sodium salt (H6501, Sigma Aldrich) and Lithium Acetoacetate (A8509, Sigma Aldrich) were prepared in water, sterile filtered, aliquoted and stored at −20° C. Lithium Chloride (L7026, Sigma Aldrich) was used as a control for the addition of Lithium in the Li-Acac.
(§2) CellTiter-Glo Luminescent cell viability assay (Promega) was used as a readout of cell numbers according to the manufacturers' instructions. In experiments shown in FIGS. 7-8, double plates were seeded and treated. One set of plates was used for collection of medium for lactate measurement (see below) and the CellTiterGlo-assay. The other set of plates was frozen at −80° C. at the end of the experiment. The frozen plates were intended for the CyQuant cell proliferation assay (Thermo Fisher) that measures the amount of DNA per well. Analysis of the amounts of cells by both CellTiterGlo and CyQuant assays would ensure that effects of the culture conditions on viability or growth rate would not be concealed by simultaneous changes in ATP-levels per cell.
Being a chiral molecule, BOHB exists as two enantiomers, D- and L-BOHB. D-BOHB is normally produced and metabolized in humans. The BOHB-salt used in this study contains a mixture of 50:50 of D- and L-BOHB. […]

[2] = tested on: RCC4 (renal cell carcinoma); experiment: Study 2: CellTiter-Glo viability, DMEM without sodium pyruvate; conditions: BOHB 0/4/12 mM, 3 d
Method: (§3) Cell lines established from human colon carcinoma (HCT15, NCI-H508 and COLO205), renal cell carcinoma (769-P, 786-O and RCC4) and glioblastoma (LN-18, A-172 and U-118 MG) were selected for the analysis. All cell lines were obtained from American Type Culture Collection (ATCC, LGC standards, UK) except for RCC4 and HCT15 that was purchased from Sigma-Aldrich (Merck, Germany). In addition, primary human renal cell carcinoma (RCC) cells isolated from patient nephrectomies were included in the study. […]
(§4) Optimal seeding density was determined for each cell line in 96 well plates according to the “Protocol for optimizing cell seeding densities to ensure Log-phase growth”. […] Cover the plate. • Incubate the plate overnight at 37° C., 5% CO2. • Add 50 μL of fresh media to the plate wells to achieve a final volume of 200 µL and incubate for 72 h at 37° C., 5% CO2. • Measure viability using Cell Titer Glo assay according to manufacturer's protocol. • Plot log cell number against luminescence intensity to identify the concentration of cells at which log growth is achieved.
(§5) CellTiter-Glo Luminescent cell viability assay (Promega) was used as a readout of viability.
(§6) For each cell line, optimal number of cells as determined above were seeded into 96-well plates on day 0. […]

A172 (glioblastoma) = experiment: as above; conditions: BOHB 0/4/12 mM, 3 d
Method: as §3, §4, §5, §6

glioma cell line A172 = experiment: Example 2: BOHB and Acac added alone or in combination to Medium A-C (CellTiter-Glo); conditions: for growth, repetition experiments 2-6: BOHB or Acac added separately, FIG. 9, inconsistent results; for number of cells compared to 8 mM LiCl control: 8 mM Acac
Method: as §1, §2
(§7) Next, it was decided to also include Acac in the study and analyze the viability of cells cultured in the presence of BOHB and Acac alone or in combination in Medium A-C. The experiment was performed at 21% and 5% O2. The experiments were made with glioma cell lines A172 and U118MG.
(§8) Being a chiral molecule, BOHB exists as two enantiomers, D- and L-BOHB. D-BOHB is normally produced and metabolized in humans. The BOHB-salt used in this study contains a mixture of 50:50 of D- and L-BOHB. In order to ensure a high presence of the active D-form, the total concentration of BOHB added was increased to 16 mM, giving a level of 8 mM D-BOHB. To keep the total concentration of active ketones constant, 8 mM Acac was used, and for the combination of both ketones, the levels were adjusted to 4 mM Acac and 8 mM BOHB (containing 4 mM D-BOHB).
(§9) The Acac available for in vitro use is in the form of a lithium salt. Since lithium itself can affect the viability of cancer cells [Cohen-Harazi et al., Anticancer Res 2020; 40:3831-3837], 8 mM LiCl was used as a control for the 8 mM Acac data point and 4 mM LiCl was used as a control for the 4 mM Acac/8 mM BOHB data.
(§10) At the end of the experiment, the culture media from each well was collected and frozen to enable later determination of lactate levels as a measurement of the metabolic state. In addition, double experiments were performed, where one set of plates were frozen for later quantification of cell numbers using the CyQuant proliferation assay, and the amounts of cells in the other set were analyzed by CellTiterGlo viability assay.

glioma cell line U118MG = experiment: as above; conditions: for number of cells compared to 8 mM LiCl control: 8 mM Acac
Method: as §1, §2, §7, §8, §9, §10

[3] = Medium A, 16 mM BOHB alone, both normoxia and hypoxia, 3 days
[4] = Medium C, 16 mM BOHB, both 21 and 5% O2
[5] = Medium A, both normoxia and hypoxia

Row | Compound | increased sensitivity to high levels of BOHB or a combination of BOHB and Acac [1] | proliferation of cells with increase in the concentration of BOHB [2] | proliferation of cells with increase in the concentration of BOHB (A172 (glioblastoma)) | growth inhibitory effect (glioma cell line A172; [3]) | number of cells, % of the amount in Medium B without BOHB (glioma cell line A172; Medium B, hypoxic) | number of cells, % compared to C-medium without BOHB (glioma cell line A172; [4]) | growth, repetition experiments 2-6 (glioma cell line A172; Medium C) | growth inhibitory effect (glioma cell line U118MG; [3]) | number of cells, % compared to C-medium without BOHB (glioma cell line U118MG; [4]) | number of cells compared to 8 mM LiCl control (glioma cell line A172; [5]) | number of cells compared to 8 mM LiCl control (glioma cell line A172; Medium B, only at 21% O2) | amounts of cells compared to 8 mM LiCl control (glioma cell line A172; Medium C, 8 mM Acac alone) | number of cells compared to 8 mM LiCl control (glioma cell line U118MG; [5]) | number of cells compared to 8 mM LiCl control (glioma cell line U118MG; Medium B, only at 21% O2) | amounts of cells compared to 8 mM LiCl control (glioma cell line U118MG; Medium C, 8 mM Acac alone)
1 | CC(O)CC(=O)[O-].[Na+] (racemic) [BOHB, DL-β-Hydroxybutyric acid sodium salt] | not found | suppresses the proliferation of cells | suppresses the proliferation of cells | no growth inhibitory effect | approximately 70% | around 30% | trend of reduced growth | no growth inhibitory effect | around 30% | – | – | – | – | – | –
2 | CC(=O)CC(=O)[O-].[Li+] [Acac, Lithium Acetoacetate] | – | – | – | – | – | – | trend of reduced growth | – | – | did not reduce the number of cells further | reduced the number of cells significantly | did not significantly reduce the amounts of cells | did not reduce the number of cells further | reduced the number of cells significantly | did not significantly reduce the amounts of cells
